In patent publication US20240246942A1, “KINASE INHIBITORS FOR THE TREATMENT OF NEURODEGENERATIVE DISEASES” (priority 2020, published 2024):

Key:
[1] = Microsomal stability, mouse; type: in vitro ADME; settings: mouse microsomes
SHSY5Y cells = experiment: MTT cytotoxicity assay; type: cell-based; parameters: dose or concentration left out as unconfirmed; settings: 48 hrs, average of ≥2 experiments;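 also: compounds tested at 10 µM final concentration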
Experimental: A day before the assay, cells were plated at 50,000/well in 96 well plates in the culture medium. […] After the incubation, cells were subjected to MTT assay using Vybrant MTT Cell Proliferation kit as directed by the vendor (Life Technologies).

CYP2C9 = CYP2C9 (Homo sapiens, UniProt P11712); experiment: P450 cocktail inhibition assay, CYP2C9; type: in vitro ADME; settings: at 10 μM
Experimental: (§1) P450s inhibition for four major isoforms are evaluated using a cocktail inhibition assay where the metabolism of specific marker substrate (CYP1A2 phenaceten […] to acetaminophen); CYP2C9, tolbutamide hydroxylation to hydrocytolbutamide; CYP2D6, bufuralol hydroxylation to […]; and CYP3A4, midazolam hydroxylation to 1′-Hydroxymidazolam) in the presence or absence of 10 TM probe compound is evaluated. The concentration of each marker substrate is approximately its Km. […] Specific inhibitors for each isoform are included in each run to validate the system.

[2] = target: T1, panel of 374 wild-type kinases (Homo sapiens, UniProt Q6PHR2); experiment: biochemical; settings: read-out: % Enzyme Activity (relative to DMSO controls), kinase ULK3
T1 construct: purchased Reaction Biology Corporation
T1 sequence (Q6PHR2 1-472): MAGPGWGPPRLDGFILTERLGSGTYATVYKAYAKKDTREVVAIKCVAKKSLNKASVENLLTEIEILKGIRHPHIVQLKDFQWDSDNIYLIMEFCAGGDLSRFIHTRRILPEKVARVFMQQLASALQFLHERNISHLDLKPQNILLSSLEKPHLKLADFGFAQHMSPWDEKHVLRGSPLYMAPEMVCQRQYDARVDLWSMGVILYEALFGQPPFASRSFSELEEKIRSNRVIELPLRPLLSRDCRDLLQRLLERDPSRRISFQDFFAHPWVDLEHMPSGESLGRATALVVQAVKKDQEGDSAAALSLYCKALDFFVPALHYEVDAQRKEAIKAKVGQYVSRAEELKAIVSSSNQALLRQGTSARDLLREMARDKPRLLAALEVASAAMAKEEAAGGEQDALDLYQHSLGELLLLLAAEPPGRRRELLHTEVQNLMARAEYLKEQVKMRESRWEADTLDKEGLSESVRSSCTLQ

[3] = target: T2, panel of 374 wild-type kinases (Homo sapiens, UniProt P16591); experiment: biochemical; settings: read-out: % Enzyme Activity (relative to DMSO controls), FER
T2 construct: purchased Reaction Biology Corporation

[4] = target: T3, panel of 374 wild-type kinases (Homo sapiens, UniProt Q9H4B4); experiment: biochemical; settings: read-out: % Enzyme Activity (relative to DMSO controls), kinase PLK3
T3 construct: purchased Reaction Biology Corporation

[5] = target: T4, panel of 374 wild-type kinases (Homo sapiens, UniProt Q86YV6); experiment: biochemical; settings: read-out: % Enzyme Activity (relative to DMSO controls), MYLK4
T4 construct: purchased Reaction Biology Corporation
T4 sequence (Q86YV6 1-388): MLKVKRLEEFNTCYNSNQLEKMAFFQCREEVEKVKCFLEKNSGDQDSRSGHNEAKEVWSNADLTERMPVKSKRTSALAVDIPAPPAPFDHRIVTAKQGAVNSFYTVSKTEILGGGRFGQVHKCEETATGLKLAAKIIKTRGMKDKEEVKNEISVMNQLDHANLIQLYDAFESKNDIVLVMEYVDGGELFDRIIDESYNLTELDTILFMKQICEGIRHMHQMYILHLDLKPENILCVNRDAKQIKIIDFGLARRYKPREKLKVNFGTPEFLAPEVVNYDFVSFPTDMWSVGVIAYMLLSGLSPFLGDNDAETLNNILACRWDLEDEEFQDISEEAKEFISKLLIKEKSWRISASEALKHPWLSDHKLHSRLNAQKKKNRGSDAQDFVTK

[6] = target: T5, panel of 374 wild-type kinases (Homo sapiens, UniProt Q6XUX3); experiment: biochemical; settings: read-out: % Enzyme Activity (relative to DMSO controls), kinase RIPK5
T5 construct: purchased Reaction Biology Corporation
T5 sequence (Q6XUX3 1-929): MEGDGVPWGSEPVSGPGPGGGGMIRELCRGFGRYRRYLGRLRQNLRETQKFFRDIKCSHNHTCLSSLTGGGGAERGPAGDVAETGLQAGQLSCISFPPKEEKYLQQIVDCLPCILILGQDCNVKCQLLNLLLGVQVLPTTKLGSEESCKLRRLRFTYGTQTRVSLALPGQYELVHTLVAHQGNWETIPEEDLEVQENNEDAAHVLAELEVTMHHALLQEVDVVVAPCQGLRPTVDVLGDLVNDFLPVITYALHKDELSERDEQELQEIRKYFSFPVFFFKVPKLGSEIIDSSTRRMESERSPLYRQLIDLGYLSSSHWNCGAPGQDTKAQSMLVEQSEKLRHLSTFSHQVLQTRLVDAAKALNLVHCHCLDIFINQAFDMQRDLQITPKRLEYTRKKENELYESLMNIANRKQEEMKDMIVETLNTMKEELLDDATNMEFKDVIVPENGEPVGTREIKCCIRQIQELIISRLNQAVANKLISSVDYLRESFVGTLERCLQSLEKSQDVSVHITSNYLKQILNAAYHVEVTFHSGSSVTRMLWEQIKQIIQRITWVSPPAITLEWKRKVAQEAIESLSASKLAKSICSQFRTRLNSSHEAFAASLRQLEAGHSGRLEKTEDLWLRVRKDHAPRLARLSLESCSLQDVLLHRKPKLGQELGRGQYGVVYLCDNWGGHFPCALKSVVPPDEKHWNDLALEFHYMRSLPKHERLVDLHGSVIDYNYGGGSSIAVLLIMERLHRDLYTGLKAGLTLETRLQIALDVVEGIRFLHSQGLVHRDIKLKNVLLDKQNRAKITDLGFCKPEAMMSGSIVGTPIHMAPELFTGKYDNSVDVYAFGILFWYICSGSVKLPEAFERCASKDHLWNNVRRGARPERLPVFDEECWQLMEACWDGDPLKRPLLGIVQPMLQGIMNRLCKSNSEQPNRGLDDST

[7] = Microsomal stability, human; type: in vitro ADME; settings: human microsomes
CYP3A4 = CYP3A4 (Homo sapiens, UniProt P08684); experiment: P450 cocktail inhibition assay, CYP3A4; type: in vitro ADME; settings: at 10 μM
Experimental: as §1

Chain of CYP2C9 (P11712 whole entry, canonical isoform): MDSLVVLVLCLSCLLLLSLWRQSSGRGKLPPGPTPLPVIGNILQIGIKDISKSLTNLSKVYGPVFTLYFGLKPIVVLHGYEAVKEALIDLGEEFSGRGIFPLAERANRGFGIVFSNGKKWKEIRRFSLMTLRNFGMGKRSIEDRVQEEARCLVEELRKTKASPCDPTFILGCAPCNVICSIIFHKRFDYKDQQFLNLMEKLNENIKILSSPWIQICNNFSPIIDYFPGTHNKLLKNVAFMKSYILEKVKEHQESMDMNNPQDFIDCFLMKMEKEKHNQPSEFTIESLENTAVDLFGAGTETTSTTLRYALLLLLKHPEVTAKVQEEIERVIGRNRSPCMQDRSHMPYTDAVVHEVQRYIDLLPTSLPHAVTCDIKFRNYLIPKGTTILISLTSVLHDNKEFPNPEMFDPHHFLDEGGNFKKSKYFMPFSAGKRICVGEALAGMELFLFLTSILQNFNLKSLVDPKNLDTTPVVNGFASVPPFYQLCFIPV
T2 sequence (P16591 whole entry): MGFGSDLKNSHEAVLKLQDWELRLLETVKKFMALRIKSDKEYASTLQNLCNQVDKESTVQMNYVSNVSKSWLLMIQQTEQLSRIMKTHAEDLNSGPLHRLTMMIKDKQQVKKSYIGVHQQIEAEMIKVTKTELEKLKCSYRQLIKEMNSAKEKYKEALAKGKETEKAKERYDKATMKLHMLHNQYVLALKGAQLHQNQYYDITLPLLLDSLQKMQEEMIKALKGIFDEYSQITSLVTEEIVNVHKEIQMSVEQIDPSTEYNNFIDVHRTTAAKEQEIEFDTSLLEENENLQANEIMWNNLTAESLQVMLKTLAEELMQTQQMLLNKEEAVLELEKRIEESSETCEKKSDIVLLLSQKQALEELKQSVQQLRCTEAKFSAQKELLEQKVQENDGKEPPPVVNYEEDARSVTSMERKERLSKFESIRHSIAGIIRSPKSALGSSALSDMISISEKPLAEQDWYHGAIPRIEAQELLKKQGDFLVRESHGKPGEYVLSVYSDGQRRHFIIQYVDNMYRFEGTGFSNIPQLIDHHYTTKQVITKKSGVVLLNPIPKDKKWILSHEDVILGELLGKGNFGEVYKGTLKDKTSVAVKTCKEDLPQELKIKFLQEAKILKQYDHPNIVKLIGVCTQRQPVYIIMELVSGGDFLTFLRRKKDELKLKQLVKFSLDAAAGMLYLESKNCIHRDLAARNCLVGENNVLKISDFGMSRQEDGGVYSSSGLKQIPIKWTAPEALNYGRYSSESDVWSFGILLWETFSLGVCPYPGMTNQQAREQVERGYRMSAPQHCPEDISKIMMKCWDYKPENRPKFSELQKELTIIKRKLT
Chain of CYP3A4 (P08684 whole entry): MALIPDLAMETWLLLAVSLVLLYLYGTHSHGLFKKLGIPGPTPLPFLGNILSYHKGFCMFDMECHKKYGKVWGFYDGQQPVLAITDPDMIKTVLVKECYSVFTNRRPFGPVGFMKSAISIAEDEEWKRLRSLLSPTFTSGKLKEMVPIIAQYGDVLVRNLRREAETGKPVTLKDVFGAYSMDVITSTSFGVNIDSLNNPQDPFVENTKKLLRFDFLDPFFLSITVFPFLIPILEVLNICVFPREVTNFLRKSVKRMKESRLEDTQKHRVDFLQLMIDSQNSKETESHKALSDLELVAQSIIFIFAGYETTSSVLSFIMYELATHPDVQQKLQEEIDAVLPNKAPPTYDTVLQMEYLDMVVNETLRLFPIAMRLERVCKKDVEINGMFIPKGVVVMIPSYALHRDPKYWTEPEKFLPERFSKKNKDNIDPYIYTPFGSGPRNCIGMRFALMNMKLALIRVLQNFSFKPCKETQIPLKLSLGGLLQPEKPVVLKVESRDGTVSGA
T3 sequence (Q9H4B4 whole entry): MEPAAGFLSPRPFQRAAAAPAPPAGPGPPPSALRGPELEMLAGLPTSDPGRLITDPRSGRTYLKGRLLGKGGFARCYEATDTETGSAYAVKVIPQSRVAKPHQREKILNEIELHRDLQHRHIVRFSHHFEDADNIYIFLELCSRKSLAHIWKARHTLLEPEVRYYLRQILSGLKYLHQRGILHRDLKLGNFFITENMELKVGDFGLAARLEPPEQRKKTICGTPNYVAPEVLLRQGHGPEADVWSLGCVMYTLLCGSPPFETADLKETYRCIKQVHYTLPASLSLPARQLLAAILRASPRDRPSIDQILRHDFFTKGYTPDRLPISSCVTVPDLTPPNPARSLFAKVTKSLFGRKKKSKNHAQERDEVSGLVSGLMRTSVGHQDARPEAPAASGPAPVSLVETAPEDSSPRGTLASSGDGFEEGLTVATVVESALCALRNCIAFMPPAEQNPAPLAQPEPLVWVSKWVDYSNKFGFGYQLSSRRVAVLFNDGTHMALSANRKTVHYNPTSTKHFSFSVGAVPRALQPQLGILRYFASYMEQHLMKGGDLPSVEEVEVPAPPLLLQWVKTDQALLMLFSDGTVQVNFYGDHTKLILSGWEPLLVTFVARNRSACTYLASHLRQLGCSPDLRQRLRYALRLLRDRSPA

## O=C(Nc1cnn(-c2csc(C(=O)NC3COC3)c2)c1)Nc1ccccc1Cl [Compound 17, 4-(4-(3-(2-chlorophenyl)ureido)-1H-pyrazol-1-yl)-N-(oxetan-3-yl)thiophene-2-carboxamide]
[1]
  Mic. stability t1/2 Mouse: 0.4 h
SHSY5Y cells
  MTT cell viability: 104%
CYP2C9
  CYP-450 % inh. 2C9: 8%
[2]
  remaining activity at 5 µM: 111%
[3]
  remaining activity at 5 µM: 101%
[4]
  remaining activity at 5 µM: 96.1%
[5]
  remaining activity at 5 µM: 85.2%
[6]
  remaining activity at 5 µM: 102%
[7]
  Mic. stability t1/2 Human: 1.1 h
CYP3A4
  CYP-450 % inh. 3A4: −34%

## Cc1sc(C(=O)NC2COC2)cc1-n1cc(NC(=O)Nc2c(F)cccc2Cl)cn1 [Compound 27, 4-(4-(3-(2-chloro-6-fluorophenyl)ureido)-1H-pyrazol-1-yl)-5-methyl-N-(oxetan-3-yl)thiophene-2-carboxamide]
[1]
  Mic. stability t1/2 Mouse: 0.95 h
SHSY5Y cells
  MTT cell viability: 111%
CYP2C9
  CYP-450 % inh. 2C9: 33%
[2]; 10 uM
  remaining activity at 10 µM: 105%
[3]; 10 uM
  remaining activity at 10 µM: 90%
[4]; 10 uM
  remaining activity at 10 µM: 102%
[5]; 10 uM
  remaining activity at 10 µM: 109%
[6]; 10 uM
  remaining activity at 10 µM: 96.6%
[7]
  Mic. stability t1/2 Human: 1.83 h
CYP3A4
  CYP-450 % inh. 3A4: 16%

## O=C(Nc1cnn(-c2csc(C(=O)NC3COC3)c2)c1)Nc1c(F)cccc1Cl [Compound 25, 4-(4-(3-(2-chloro-6-fluorophenyl)ureido)-1H-pyrazol-1-yl)-N-(oxetan-3-yl)thiophene-2-carboxamide]
[1]
  Mic. stability t1/2 Mouse: 1.2 h
SHSY5Y cells
  MTT cell viability: 102%
CYP2C9
  CYP-450 % inh. 2C9: 48%
[2]
  remaining activity at 5 µM: 76.6%
[3]
  remaining activity at 5 µM: 89.8%
[4]
  remaining activity at 5 µM: 96%
[5]
  remaining activity at 5 µM: 91.7%
[6]
  remaining activity at 5 µM: 95.5%
[7]
  Mic. stability t1/2 Human: 1.67 h
CYP3A4
  CYP-450 % inh. 3A4: 24%
